Literature values in article PMC7343746, “(2S, 4R)-4-[^18F]Fluoroglutamine for In vivo PET Imaging of Glioma Xenografts in Mice: an Evaluation of Multiple Pharmacokinetic Models” (Molecular Imaging and Biology, 2020).

Tested on: alanine aminotransferase
Set-up: method as in PMID 22613816
Conditions: cited from earlier work

In the case of `N[C@@H](C[C@@H]([18F])C(=O)O)C(=O)O` [(2S, 4R)-4-[^18F]fluoroglutamate], the “Efficiency of processing and defluorination versus non-fluorinated natural counterpart” value is listed as 5.6 times.
